Measurements from patent US20050059726A1, “Pyrrolidine-2-ones as factor xa inhibitors” (priority 2001, published 2005).
Where a name gives a salt, the structure may show the parent alone.

What follows are molecules tested against T1, human Factor Xa (Homo sapiens, UniProt P00742) (assay: In vitro assay for inhibition of Factor Xa (2), fluorogenic assay). Settings: substrate Rhodamine 110, bis-(CBZ-glycylglycyl-L-arginine amide 10 μM), Ki calculated from IC50.
Format: biochemical
Summary of the method: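 Enzyme (final 0.0003 U/mL) preincubated 15 min with compound at room temperature in 50 mM Tris-HCl, 150 mM NaCl, 5 mM CaCl2, pH 7.4, then rhodamine 110 bis-(CBZ-Gly-Gly-Arg amide) substrate added (final 10 μM).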

T1 sequence (P00742 235-488 limits assumed): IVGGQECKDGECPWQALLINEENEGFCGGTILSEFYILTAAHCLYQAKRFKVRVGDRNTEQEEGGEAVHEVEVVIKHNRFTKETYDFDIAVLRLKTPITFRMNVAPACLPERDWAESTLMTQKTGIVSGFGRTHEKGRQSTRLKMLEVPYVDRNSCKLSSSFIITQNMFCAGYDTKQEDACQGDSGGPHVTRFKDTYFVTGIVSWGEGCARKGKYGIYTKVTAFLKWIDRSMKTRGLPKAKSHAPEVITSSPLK
T1 sequence (P00742 41-179 partner limits assumed): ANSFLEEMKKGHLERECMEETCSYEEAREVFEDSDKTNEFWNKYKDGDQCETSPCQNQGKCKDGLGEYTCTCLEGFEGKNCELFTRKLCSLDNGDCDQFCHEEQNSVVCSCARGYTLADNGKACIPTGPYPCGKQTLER

Ki | Structure (SMILES)
< 0.01 µM | NC(=O)CN([C@H]1CCN(c2ccc(-c3ccccc3S(N)(=O)=O)cc2F)C1=O)S(=O)(=O)c1cc2ccc(Cl)cc2s1 [Example 140, 2-{(6-Chloro-benzo[b]thiophene-2-sulphonyl)-[(S)-1-(3-fluoro-2′-sulfamoyl-biphenyl-4-yl)-2-oxo-pyrrolidin-3-yl]-amino}-acetamide Formate]
< 0.01 µM | C/C(=C\S(=O)(=O)N[C@H]1CCN(c2ccc(-n3ccnc3C[N+](C)(C)CC(N)=O)cc2F)C1=O)c1ccc(Cl)s1 [Example 142, 2-Amino-N-[(1-{4-[(3S)-3-({[(1E)-2-(5-chlorothien-2-yl)prop-1-enyl]sulfonyl}amino)-2-oxopyrrolidin-1-yl]-3-fluorophenyl}-1H-imidazol-2-yl)methyl]-N,N-dimethyl-2-oxoethanaminium formate]
< 0.01 µM | C[N+](C)(CC(N)=O)Cc1nccn1-c1ccc(N2CC[C@H](NS(=O)(=O)CCc3ccc(Cl)s3)C2=O)c(F)c1 [Example 143, 2-Amino-N-[(1-{4-[(3S)-3-({[2-(5-chlorothien-2-yl)ethyl]sulfonyl}amino)-2-oxopyrrolidin-1-yl]-3-fluorophenyl}-1H-imidazol-2-yl)methyl]-N,N-dimethyl-2-oxoethanaminium Formate]
< 0.01 µM | C[N+](C)(CC(N)=O)Cc1nccn1-c1ccc(N2CC[C@H](NS(=O)(=O)c3cc4ccc(Cl)cc4s3)C2=O)c(F)c1 [Example 144, 2-Amino-N-({1-[4-((3S)-3-{[(6-chloro-1-benzothien-2-yl)sulfonyl]amino}-2-oxopyrrolidin-1-yl)-3-fluorophenyl]-1 H-imidazol-2-yl}methyl)-N,N-dimethyl-2-oxoethanaminium Formate]

The molecules below were run against T1, human Factor Xa (assay: In vitro assay for inhibition of Factor Xa (1), chromogenic assay). Settings: substrate N-α-benzyloxycarbonyl-D-Arg-Gly-Arg-p-nitroanilide 200 μM, Ki calculated from IC50.
Format: biochemical
Experimental: • 1. Klimkowski, Valentine Joseph; Kyle, Jeffrey Alan; Masters, John Joseph; Wiley, Michael Robert. PCT Int. Appl. (2000), WO 0039092. In Vitro Assay for Inhibition of Factor Xa (1)
Compounds were diluted from a 10 mM stock solution in dimethylsulfoxide at appropriate concentrations. Assay was performed at room temperature using buffer consisting of: 50 mM Tris-HCl, 150 mM NaCl, 5 mM CaCl2, pH 7.4. containing human Factor Xa (final conc. of 0.0015 U,ml^−1). Compound and enzyme were preincubated for 15 min prior to addition of the substrate (final conc. of 200 μM). The reaction was stopped after 30 min with the addition of soybean trypsin inhibitor or H-D-PHE-PRO-ARG-Chloromethylketone. BioTek EL340 or Tecan Spectrafluoro Plus plate readers were used to monitor the absorbance at 405 nm. To obtain IC50 values the data were analysed using ActivityBase® and XLfit®.
Calculation of Ki values:
Ki=IC50/(1+[Substrate]/Km)
The Ki value for the above assay can be obtained by dividing the IC50 value by 1.6.

Structure (SMILES) | Ki
CS(=O)(=O)c1ccccc1-c1ccc(N2CC[C@H](NS(=O)(=O)c3cc4cc(Cl)ccc4o3)C2=O)nc1 [Example 23, 5-Chloro-N-((3S)-1-{5-[2-(methylsulfonyl)phenyl]pyridin-2-yl}-2-oxopyrrolidin-3-yl)-1-benzofuran-2-sulfonamide] | < 1 µM
Cc1ccc(-c2ccc(N3CC[C@H](NS(=O)(=O)c4ccc5cc(Cl)ccc5c4)C3=O)c(F)c2)o1 [Example 73, 6-Chloro-N-{(3S)-1-[2-fluoro-4-(5-methyl-2-furyl)phenyl]-2-oxopyrrolidin-3-yl}naphthalene-2-sulfonamide] | < 1 µM
O=C1[C@@H](NS(=O)(=O)c2ccc3cc(Cl)ccc3c2)CCN1c1ccc(I)cc1F [Example 89, 6-Chloro-N-[(3S)-1-(2-fluoro-4-iodophenyl)-2-oxopyrrolidin-3-yl]naphthalene-2-sulfonamide] | < 0.2 µM
O=C1[C@@H](NS(=O)(=O)/C=C/c2ccc(Cl)s2)CCN1c1ccc(I)cn1 [Example 90, (E)-2-(5-Chlorothien-2-yl)-N-[(3S)-1-(5-iodopyridin-2yl)oxopyrrolidin-3-yl]ethenesulfonamide] | < 1 µM
CC(C)(C)c1ccc(N2CC[C@H](NS(=O)(=O)c3ccc4cc(Cl)ccc4c3)C2=O)cc1 [Example 125, N-[(3S)-1-(4-tert-butylphenyl)-2-oxopyrrolidinyl]-6-chloro-2-naphthalenesulfonamide] | < 0.2 µM

Further lines, results first:

Ki | Structure (SMILES)
< 0.02 µM | CN(C)c1ccc(N2CC[C@H](NS(=O)(=O)c3ccc4cc(Cl)ccc4c3)C2=O)cc1 [Example 2, 6-Chloro-N-{(3S)-1-[4-(dimethylamino)phenyl]-2-oxopyrrolidin-3-yl}naphthalene-2-sulfonamide]
< 0.01 µM | CNS(=O)(=O)c1ccccc1-c1ccc(N2CC[C@H](NS(=O)(=O)/C=C/c3ccc(Cl)s3)C2=O)c(F)c1 [Example 19, 4′-[(3S)-3-({[(E)-2-(5-Chlorothien-2-yl)ethenyl]sulfonyl}amino)-2-oxopyrrolidin-1-yl]-3′-fluoro-N-methyl-1,1′-biphenyl-2-sulfonamide]
< 0.02 µM | CS(=O)(=O)Nc1ccccc1-c1ccc(N2CC[C@H](NS(=O)(=O)/C=C/c3ccc(Cl)s3)C2=O)nc1 [Example 21, (E)-2-(5-Chlorothien-2-yl)-N-[(3S)-1-(5-{2-[(methylsulfonyl)amino]phenyl}pyridin-2-yl)-2-oxopyrrolidin-3-yl]ethenesulfonamide]
< 0.01 µM | O=C1[C@@H](NS(=O)(=O)c2ccc3cc(Cl)ccc3c2)CCN1c1ccc(-c2ccncc2Cl)cc1F [Example 83, 6-chloro-N-{(3S)-1-[4-(3-Chloropyridin-4-yl)-2-fluorophenyl]-2-oxopyrrolidin-3-yl}naphthalene-2-sulfonamide]
< 0.01 µM | Cn1cncc1-c1ccc(N2CC[C@H](NS(=O)(=O)c3ccc4cc(Cl)ccc4c3)C2=O)c(F)c1 [Example 85, 6-Chloro-N-{(3S)-1-[2-fluoro-4-(1-methyl-1H-imidazol-5-yl)phenyl]-2-oxopyrrolidin-3-yl}naphthalene-2-sulfonamide]
